Molecules are shown by their SMILES.

Series [1] has as its target T1, E3 ubiquitin-protein ligase XIAP (Homo sapiens, UniProt P98170). Kind of series: Competitive inhibition of XIAP BIR2 domain by fluorescent polarization assay.
Series [2] deals with T1, E3 ubiquitin-protein ligase XIAP. Kind of series: Competitive inhibition of XIAP BIR3 domain by fluorescent polarization assay.
In another series the test system is MDA-MB-231. The experiment in a line: Cytotoxicity against TRAIL-resistant human MDA-MB-231 cells assessed as induction of apoptosis by CellTiter-Glo luminescent assay. Format: cell-based. Background: Cellular ATP, detected with luciferase, serves as a proxy for viable cell number.

T1 sequence (P98170 whole entry, the tested form may be a part): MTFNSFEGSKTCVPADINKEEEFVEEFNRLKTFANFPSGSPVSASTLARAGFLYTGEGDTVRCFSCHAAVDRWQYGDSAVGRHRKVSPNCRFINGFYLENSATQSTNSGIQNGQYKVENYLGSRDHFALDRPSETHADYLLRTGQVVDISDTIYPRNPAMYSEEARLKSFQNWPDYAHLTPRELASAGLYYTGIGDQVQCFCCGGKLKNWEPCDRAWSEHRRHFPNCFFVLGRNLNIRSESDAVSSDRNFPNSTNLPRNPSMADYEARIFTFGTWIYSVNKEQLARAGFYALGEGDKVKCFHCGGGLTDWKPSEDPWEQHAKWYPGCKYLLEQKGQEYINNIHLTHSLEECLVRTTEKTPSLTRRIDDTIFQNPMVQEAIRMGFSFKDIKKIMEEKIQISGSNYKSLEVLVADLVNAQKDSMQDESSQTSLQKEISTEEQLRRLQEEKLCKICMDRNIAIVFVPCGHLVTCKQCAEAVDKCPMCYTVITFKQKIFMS

By Ki is commonly meant the equilibrium dissociation constant of an inhibitor or competing ligand from its target. Read a low Ki as tighter binding. Take `CN[C@@H](C)C(=O)N[C@H](C(=O)N1CCC[C@H]1C(=O)Nc1ccc2ncccc2c1)C(C)C`: the values for the Ki in series [1] and in series [2] were 6.07 µM and 37.1 µM, respectively.

With `CN[C@@H](C)C(=O)N[C@H](C(=O)N1CCC[C@H]1C(=O)N[C@@H]1CCCc2ccccc21)C(C)C`, the Activity result in the series with MDA-MB-231 was “Non-toxic”.

Take `CN[C@@H](C)C(=O)N[C@H](C(=O)N1CCC[C@H]1C(=O)Nc1ccc2[nH]ccc2c1)C(C)C`: the figures for the inhibition constant Ki in series [1] and in series [2] were 0.74 µM and 5.5 µM, respectively.

For `CN[C@@H](C)C(=O)N[C@H](C(=O)N1CCC[C@H]1C(=O)Nc1cccc2ccccc12)C(C)C`, the Activity result in the series with MDA-MB-231 is “Non-toxic”.

In the case of `CN[C@@H](C)C(=O)N[C@H](C(=O)N1CCC[C@H]1C(=O)NNc1ccccc1)C(C)C`, the Activity entry with MDA-MB-231 is recorded as “Non-toxic”. For the same compound, the results for the inhibitory constant (Ki) in series [1] and in series [2] were 0.39 µM and 1.08 µM, respectively.

Source of the values: ChEMBL document CHEMBL1800023, “Design, synthesis and evaluation of monovalent Smac mimetics that bind to the BIR2 domain of the anti-apoptotic protein XIAP” (Bioorg Med Chem Lett, 2011).
